Target: c-kit mutant D816V (Homo sapiens (Human), UniProt P10721, D816V/DEL694-753)
Assay: c-Kit mutant D816V biochemical assay (AlphaScreen kinase activity)
Experimental: The c-kit mutant D816V (or kinase domain thereof) is an active kinase in AlphaScreen. IC50 values are determined with respect to inhibition of c-Kit mutant D816V kinase activity, where inhibition of phosphorylation of a peptide substrate is measured as a function of compound concentration. Compounds to be tested were dissolved in DMSO to a concentration of 30 mM. These were diluted […] of DMSO (4 mM) and 1 μl was added to an assay plate. These were then serially diluted 1:3 (50 μl to […] DMSO) for a total of 8 points. Plates were prepared such that each kinase reaction is […] in 1× kinase buffer (25 mM HEPES, pH 7.2, 8 mM MgCl2, 2 mM MnCl2, 50 mM NaCl, 0.01% Brij, 1 mM DTT, 0.01% BSA), 5% DMSO and 10 μM ATP. Substrate was 30 nM biotin-(E4Y)10 (EMD Millipore, Cat#12-440). C-kit mutant D816V kinase was at 0.75 ng per sample. After incubation of the kinase reaction for 30 minutes at room temperature, 5 μl of donor beads (Streptavidin coated beads (Perkin Elmer Life Science) final concentration 7.5 μg/ml) in stop buffer (25 mM Hepes pH 7.5, 100 mM EDTA, 0.01% BSA) was added, the sample was mixed and incubated for 30 minutes at room temperature before adding […] of acceptor beads (PY30 coated beads (Perkin Elmer Life Science) final concentration 7.5 μg/ml) in stop buffer. The samples were incubated for 60 minutes at room temperature and the signal per well was read on EnVision reader. Phosphorylated substrate results in binding of the PY30 antibody and association of the donor and acceptor beads such that signal correlates with kinase activity. The signal vs. compound concentration was used to determine the IC50.
Recombinant c-kit mutant D816V (residues 551-934, kinase insertion domain residues 694-753 deleted) with a 6×-histidine N-terminal tag (SEQ ID NO: 3) was expressed in E. coli Arctic Express (DE3) RIL (Stratagene). Cells were grown in Terrific Broth (TB) media to an OD600 of 0.6 at 37° C. at which temperature was reduced to 10° C., protein was induced with 1.0 mM IPTG for 18 hours and harvested by centrifugation at 8000×g for 30 minutes. Cells were re-suspended in 0.1M KPO4 pH 8.0, 250 mM NaCl, 10% Glycerol, 0.75% NP-40, 25 mM Imidazole, 5 mM BME with 0.2 mg/ml Lysosyme, 2.0 mM PMSF, 25 μg/ml DNAse I, incubated in ice for 30 minutes and lyzed with a cell disruptor (MicroFluidics). The lysate was clarified by centrifugation at 30,000×g for 2 hours. The protein was captured with Talon resin (Clontech). Contaminating proteins were washed off with 25 mM Tris-HCl pH 8.3, 250 mM NaCl, 15% Glycerol, 1% Triton X-100, and protein eluted using 100 mM EDTA. The protein was further purified using Gel Filtration column 26/600 Superdex 300 (GE) in 50 mM Tris-HCl , pH 8.0, 250 mM NaCl, 15% Glycerol, 5 mM BME. The protein was aliquoted and flash-frozen in liquid Nitrogen.

Chain of c-kit mutant D816V (P10721 other isoform, or with tags, fused parts or gaps D816V/del 694-753): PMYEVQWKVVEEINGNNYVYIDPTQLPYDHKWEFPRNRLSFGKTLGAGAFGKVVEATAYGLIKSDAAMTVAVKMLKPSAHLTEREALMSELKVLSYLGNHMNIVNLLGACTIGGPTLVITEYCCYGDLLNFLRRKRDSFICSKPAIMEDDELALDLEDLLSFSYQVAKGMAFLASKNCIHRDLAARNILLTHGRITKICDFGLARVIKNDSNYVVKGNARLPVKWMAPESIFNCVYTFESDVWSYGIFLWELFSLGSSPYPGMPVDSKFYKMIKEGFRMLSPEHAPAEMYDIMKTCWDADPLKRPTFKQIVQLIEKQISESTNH

| Compound | IC50 [µM] |
| --- | --- |
| COc1cc(-c2cc3c(N4CCC(c5nc(C)c(-c6ccc(F)cc6)[nH]5)CC4)ncnc3[nH]2)ccn1 [P-3007, 4-[4-[5-(4-fluorophenyl)-4-methyl-1H-imidazol-2-yl]-1-piperidyl]-6-(2-methoxy-4-pyridyl)-7H-pyrrolo[2,3-d]pyrimidine] | 0.0001 to 1 |
| COc1cc(-c2cc3c(N4CCC(c5nc(C6CC6)c(-c6ccccc6)[nH]5)CC4)ncnc3[nH]2)ccn1 [P-3008, 4-[4-(4-cyclopropyl-5-phenyl-1H-imidazol-2-yl)-1-piperidyl]-6-(2-methoxy-4-pyridyl)-7H-pyrrolo[2,3-d]pyrimidine] | 0.0001 to 1 |
| Fc1ccc(-c2cc3c(N4CCC(c5nc(C6CC6)c(-c6ccccc6)[nH]5)CC4)ncnc3[nH]2)cc1 [P-3009, 4-[4-(4-cyclopropyl-5-phenyl-1H-imidazol-2-yl)-1-piperidyl]-6-(4-fluorophenyl)-7H-pyrrolo[2,3-d]pyrimidine] | 0.0001 to 1 |
| N#Cc1ccc(-c2cc3c(N4CCC(c5nc(C6CC6)c(-c6ccccc6)[nH]5)CC4)ncnc3[nH]2)cc1 [P-3010, 4-[4-[4-(4-cyclopropyl-5-phenyl-1H-imidazol-2-yl)-1-piperidyl]-7H-pyrrolo[2,3-d]pyrimidin-6-yl]benzonitrile] | 0.0001 to 1 |
| Cc1nc(C2CCN(c3ncnc4[nH]c(-c5ccc(F)cc5)cc34)CC2)[nH]c1-c1cccc(OC(F)(F)F)c1 [P-3011, 6-(4-fluorophenyl)-4-[4-[4-methyl-5-[3-(trifluoromethoxy)phenyl]-1H-imidazol-2-yl]-1-piperidyl]-7H-pyrrolo[2,3-d]pyrimidine] | 0.0001 to 1 |
| CCOc1cc(-c2[nH]c(C3CCN(c4ncnc5[nH]c(-c6ccc(C#N)cc6)cc45)CC3)nc2C)ccc1C [P-3095, 4-[4-[4-[5-(3-ethoxy-4-methyl-phenyl)-4-methyl-1H-imidazol-2-yl]-1-piperidyl]-7H-pyrrolo[2,3-d]pyrimidin-6-yl]benzonitrile] | 0.0001 to 1 |
| CCOc1cc(-c2[nH]c(C3CCN(c4ncnc5[nH]c(-c6ccnc(OC)c6)cc45)CC3)nc2C)ccc1C [P-3096, 4-[4-[5-(3-ethoxy-4-methyl-phenyl)-4-methyl-1H-imidazol-2-yl]-1-piperidyl]-6-(2-methoxy-4-pyridyl)-7H-pyrrolo[2,3-d]pyrimidine] | 0.0001 to 1 |
| Cc1nc(C2CCN(c3ncnc4[nH]c(-c5ccnc(C(F)(F)F)c5)cc34)CC2)[nH]c1-c1ccccc1 [P-3097, 4-[4-(4-methyl-5-phenyl-1H-imidazol-2-yl)-1-piperidyl]-6-[2-(trifluoromethyl)-4-pyridyl]-7H-pyrrolo[2,3-d]pyrimidine] | 0.0001 to 1 |
| Cc1nc(C2CCN(c3ncnc4[nH]c(-c5cccc(C(F)(F)F)c5)cc34)CC2)[nH]c1-c1ccccc1 [P-3098, 4-[4-(4-methyl-5-phenyl-1H-imidazol-2-yl)-1-piperidyl]-6-[3-(trifluoromethyl)phenyl]-7H-pyrrolo[2,3-d]pyrimidine] | 0.0001 to 1 |
| CCOc1ccc(-c2[nH]c(C3(C)CCN(c4ncnc5[nH]c(C)cc45)CC3)nc2C)cc1C [P-3099, 4-[4-[5-(4-ethoxy-3-methyl-phenyl)-4-methyl-1H-imidazol-2-yl]-4-methyl-1-piperidyl]-6-methyl-7H-pyrrolo[2,3-d]pyrimidine] | 0.0001 to 1 |
| CCc1ccc(-c2[nH]c(C3(C)CCN(c4ncnc5[nH]c(C)cc45)CC3)nc2C)cc1 [P-3101, 4-[4-[5-(4-ethylphenyl)-4-methyl-1H-imidazol-2-yl]-4-methyl-1-piperidyl]-6-methyl-7H-pyrrolo[2,3-d]pyrimidine] | 0.0001 to 1 |
| COc1ccc(-c2[nH]c(C3(C)CCN(c4ncnc5[nH]c(C)cc45)CC3)nc2C)cc1C [P-3102, 4-[4-[5-(4-methoxy-3-methyl-phenyl)-4-methyl-1H-imidazol-2-yl]-4-methyl-1-piperidyl]-6-methyl-7H-pyrrolo[2,3-d]pyrimidine] | 0.0001 to 1 |
| COc1cc(-c2cc3c(N4CCC(c5nc(C)c(-c6ccc(C)c(OC)c6)[nH]5)CC4)ncnc3[nH]2)ccn1 [P-3104, 4-[4-[5-(3-methoxy-4-methyl-phenyl)-4-methyl-1H-imidazol-2-yl]-1-piperidyl]-6-(2-methoxy-4-pyridyl)-7H-pyrrolo[2,3-d]pyrimidine] | 0.0001 to 1 |
| COc1cc(-c2[nH]c(C3(C)CCN(c4ncnc5[nH]c(C)cc45)CC3)nc2C)ccc1C [P-3105, 4-[4-[5-(3-methoxy-4-methyl-phenyl)-4-methyl-1H-imidazol-2-yl]-4-methyl-1-piperidyl]-6-methyl-7H-pyrrolo[2,3-d]pyrimidine] | 0.0001 to 1 |
| COc1cc(-c2[nH]c(C3CCN(c4ncnc5[nH]c(-c6ccc(C#N)cc6)cc45)CC3)nc2C)ccc1C [P-3106, 4-[4-[4-[5-(3-methoxy-4-methyl-phenyl)-4-methyl-1H-imidazol-2-yl]-1-piperidyl]-7H-pyrrolo[2,3-d]pyrimidin-6-yl]benzonitrile] | 0.0001 to 1 |
| Cc1nc(C2CCN(c3ncnc4[nH]c(-c5cnn(C(F)F)c5)cc34)CC2)[nH]c1-c1ccc(F)cc1 [P-3107, 6-[1-(difluoromethyl)pyrazol-4-yl]-4-[4-[5-(4-fluorophenyl)-4-methyl-1H-imidazol-2-yl]-1-piperidyl]-7H-pyrrolo[2,3-d]pyrimidine] | 0.0001 to 1 |
| COc1ccc(-c2[nH]c(C3CCN(c4ncnc5[nH]c(-c6cnn(C(F)F)c6)cc45)CC3)nc2C)cc1 [P-3108, 6-[1-(difluoromethyl)pyrazol-4-yl]-4-[4-[5-(4-methoxyphenyl)-4-methyl-1H-imidazol-2-yl]-1-piperidyl]-7H-pyrrolo[2,3-d]pyrimidine] | 0.0001 to 1 |
| Cc1nc(C2CCN(c3ncnc4[nH]c(-c5ccc(F)cc5)cc34)CC2)[nH]c1-c1ccc2c(c1)OC(F)(F)O2 [P-3109, 4-[4-[5-(2,2-difluoro-1,3-benzodioxol-5-yl)-4-methyl-1H-imidazol-2-yl]-1-piperidyl]-6-(4-fluorophenyl)-7H-pyrrolo[2,3-d]pyrimidine] | 0.0001 to 1 |
| Cc1nc(C2CCN(c3ncnc4[nH]c(-c5ccc(C#N)cc5)cc34)CC2)[nH]c1-c1ccc2c(c1)OC(F)(F)O2 [P-3110, 4-[4-[4-[5-(2,2-difluoro-1,3-benzodioxol-5-yl)-4-methyl-1H-imidazol-2-yl]-1-piperidyl]-7H-pyrrolo[2,3-d]pyrimidin-6-yl]benzonitrile] | 0.0001 to 1 |
| COc1cc(-c2cc3c(N4CCC(c5nc(C)c(-c6ccc7c(c6)OC(F)(F)O7)[nH]5)CC4)ncnc3[nH]2)ccn1 [P-3111, 4-[4-[5-(2,2-difluoro-1,3-benzodioxol-5-yl)-4-methyl-1H-imidazol-2-yl]-1-piperidyl]-6-(2-methoxy-4-pyridyl)-7H-pyrrolo[2,3-d]pyrimidine] | 0.0001 to 1 |
| COc1ccc(-c2[nH]c(C3CCN(c4ncnc5[nH]c(-c6ccc(C#N)cc6)cc45)CC3)nc2C)cn1 [P-3112, 4-[4-[4-[5-(6-methoxy-3-pyridyl)-4-methyl-1H-imidazol-2-yl]-1-piperidyl]-7H-pyrrolo[2,3-d]pyrimidin-6-yl]benzonitrile] | 0.0001 to 1 |
| Cc1nc(C2CCN(c3ncnc4[nH]c(-c5ccc(C#N)cc5)cc34)CC2)[nH]c1-c1ccc(OC(F)F)cc1 [P-3113, 4-[4-[4-[5-[4-(difluoromethoxy)phenyl]-4-methyl-1H-imidazol-2-yl]-1-piperidyl]-7H-pyrrolo[2,3-d]pyrimidin-6-yl]benzonitrile] | 0.0001 to 1 |
| COc1cccc(-c2[nH]c(C3CCN(c4ncnc5[nH]c(-c6cnn(C(F)F)c6)cc45)CC3)nc2C)c1 [P-3114, 6-[1-(difluoromethyl)pyrazol-4-yl]-4-[4-[5-(3-methoxyphenyl)-4-methyl-1H-imidazol-2-yl]-1-piperidyl]-7H-pyrrolo[2,3-d]pyrimidine] | 0.0001 to 1 |
| Cc1nc(C2CCN(c3ncnc4[nH]c(-c5cnn(C(F)F)c5)cc34)CC2)[nH]c1-c1ccc(OC(F)F)cc1 [P-3115, 4-[4-[5-[4-(difluoromethoxy)phenyl]-4-methyl-1H-imidazol-2-yl]-1-piperidyl]-6-[1-(difluoromethyl)pyrazol-4-yl]-7H-pyrrolo[2,3-d]pyrimidine] | 0.0001 to 1 |
